Test results taken from ChEMBL document CHEMBL1201862, “PubChem BioAssay data set” (2004).
Calls of active or inactive are those of the source.

How the values were obtained:
Phospholipase D1 = Phospholipase D1 (Homo sapiens, UniProt Q13393); test: PLD1 inhibitor potency in cells, dose response (AID 602151); format: functional;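 note: cellular PLD1 assay in Calu-1 cells stimulated with PMA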
Phospholipase D2 = Phospholipase D2 (Homo sapiens, UniProt O14939); test: PLD2 inhibitor potency in cells, dose response (AID 602147); format: functional;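 note: cellular assay in HEK293 cells overexpressing GFP-tagged PLD2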
[1] = biological target: Glucose-6-phosphate 1-dehydrogenase (Homo sapiens, UniProt P11413); test: human G6PD enzyme inhibitors, dose response, selectivity assay for P. falciparum G6PD inhibitor project, biochemical, fluorescence (AID 504792); format: functional
Sequence of Glucose-6-phosphate 1-dehydrogenase (P11413 whole entry): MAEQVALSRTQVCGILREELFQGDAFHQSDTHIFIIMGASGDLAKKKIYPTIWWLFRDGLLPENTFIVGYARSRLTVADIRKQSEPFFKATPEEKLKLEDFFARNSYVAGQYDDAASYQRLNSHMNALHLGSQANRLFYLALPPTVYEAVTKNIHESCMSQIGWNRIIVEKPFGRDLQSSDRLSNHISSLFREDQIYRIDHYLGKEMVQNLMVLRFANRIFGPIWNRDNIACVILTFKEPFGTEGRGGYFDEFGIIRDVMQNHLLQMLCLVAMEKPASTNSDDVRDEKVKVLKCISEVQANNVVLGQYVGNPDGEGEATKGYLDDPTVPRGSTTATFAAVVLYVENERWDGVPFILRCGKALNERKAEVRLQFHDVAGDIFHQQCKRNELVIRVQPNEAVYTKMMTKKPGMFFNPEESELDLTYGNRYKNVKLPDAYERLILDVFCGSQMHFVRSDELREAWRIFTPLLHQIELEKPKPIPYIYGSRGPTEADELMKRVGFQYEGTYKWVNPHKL

[2] = biological target: T1, C-C chemokine receptor type 6 (Homo sapiens, UniProt P51684); test: CCR6 receptor antagonists, dose response, cell-based, luminescent beta-arrestin readout (AID 504728); format: functional
T1 sequence (P51684 whole entry): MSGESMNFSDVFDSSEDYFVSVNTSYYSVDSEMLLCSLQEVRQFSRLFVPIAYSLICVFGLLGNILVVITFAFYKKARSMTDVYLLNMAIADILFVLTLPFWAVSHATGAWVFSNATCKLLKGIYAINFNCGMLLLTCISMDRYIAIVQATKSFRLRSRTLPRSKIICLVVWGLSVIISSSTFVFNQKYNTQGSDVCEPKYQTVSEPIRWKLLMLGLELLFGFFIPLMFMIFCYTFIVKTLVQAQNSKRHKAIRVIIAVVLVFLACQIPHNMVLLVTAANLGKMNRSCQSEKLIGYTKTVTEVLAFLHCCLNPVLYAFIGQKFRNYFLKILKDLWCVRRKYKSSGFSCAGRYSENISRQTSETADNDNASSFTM

Beta-galactosidase [3] = biological target: T2, Beta-galactosidase (Escherichia coli, UniProt Q8VNN2); test: beta-galactosidase enzyme inhibitors and activators, dose response, artefact control for CCR6 antagonist project, biochemical, E. coli enzyme, set 3 (AID 504712); format: functional
T2 sequence (Q8VNN2 whole entry): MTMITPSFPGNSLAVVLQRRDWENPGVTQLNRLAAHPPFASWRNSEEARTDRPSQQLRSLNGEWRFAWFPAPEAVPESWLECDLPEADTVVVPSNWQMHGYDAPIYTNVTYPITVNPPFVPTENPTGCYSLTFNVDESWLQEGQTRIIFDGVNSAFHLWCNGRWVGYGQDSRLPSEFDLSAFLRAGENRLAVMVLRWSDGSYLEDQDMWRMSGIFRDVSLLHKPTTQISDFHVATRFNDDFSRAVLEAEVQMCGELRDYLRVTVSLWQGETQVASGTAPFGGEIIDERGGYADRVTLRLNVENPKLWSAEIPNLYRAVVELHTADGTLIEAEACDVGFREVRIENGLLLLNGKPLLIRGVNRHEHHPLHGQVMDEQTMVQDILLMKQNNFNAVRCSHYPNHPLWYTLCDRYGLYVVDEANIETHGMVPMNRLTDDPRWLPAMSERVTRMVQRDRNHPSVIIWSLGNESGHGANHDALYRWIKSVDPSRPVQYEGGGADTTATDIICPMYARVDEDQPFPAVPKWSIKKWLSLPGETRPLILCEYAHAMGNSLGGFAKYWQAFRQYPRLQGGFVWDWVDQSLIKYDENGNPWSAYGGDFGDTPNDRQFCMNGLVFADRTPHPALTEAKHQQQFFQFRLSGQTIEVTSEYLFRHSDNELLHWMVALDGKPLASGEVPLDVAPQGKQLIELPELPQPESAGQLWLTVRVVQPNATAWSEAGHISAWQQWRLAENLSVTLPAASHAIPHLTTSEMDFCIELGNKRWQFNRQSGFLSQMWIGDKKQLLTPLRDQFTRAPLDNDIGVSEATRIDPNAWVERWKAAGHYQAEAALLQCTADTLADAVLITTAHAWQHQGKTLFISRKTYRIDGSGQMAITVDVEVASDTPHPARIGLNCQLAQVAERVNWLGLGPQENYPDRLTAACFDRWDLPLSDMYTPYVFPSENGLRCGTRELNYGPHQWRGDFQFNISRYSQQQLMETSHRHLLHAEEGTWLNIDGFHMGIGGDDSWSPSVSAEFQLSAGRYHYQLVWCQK

Hexokinase HKDC1 = biological target: T3, Hexokinase HKDC1 (Homo sapiens, UniProt Q2TB90); test: HKDC1 hexokinase inhibitors, dose response, biochemical, W721R variant (AID 504729); format: functional
T3 sequence (Q2TB90 whole entry): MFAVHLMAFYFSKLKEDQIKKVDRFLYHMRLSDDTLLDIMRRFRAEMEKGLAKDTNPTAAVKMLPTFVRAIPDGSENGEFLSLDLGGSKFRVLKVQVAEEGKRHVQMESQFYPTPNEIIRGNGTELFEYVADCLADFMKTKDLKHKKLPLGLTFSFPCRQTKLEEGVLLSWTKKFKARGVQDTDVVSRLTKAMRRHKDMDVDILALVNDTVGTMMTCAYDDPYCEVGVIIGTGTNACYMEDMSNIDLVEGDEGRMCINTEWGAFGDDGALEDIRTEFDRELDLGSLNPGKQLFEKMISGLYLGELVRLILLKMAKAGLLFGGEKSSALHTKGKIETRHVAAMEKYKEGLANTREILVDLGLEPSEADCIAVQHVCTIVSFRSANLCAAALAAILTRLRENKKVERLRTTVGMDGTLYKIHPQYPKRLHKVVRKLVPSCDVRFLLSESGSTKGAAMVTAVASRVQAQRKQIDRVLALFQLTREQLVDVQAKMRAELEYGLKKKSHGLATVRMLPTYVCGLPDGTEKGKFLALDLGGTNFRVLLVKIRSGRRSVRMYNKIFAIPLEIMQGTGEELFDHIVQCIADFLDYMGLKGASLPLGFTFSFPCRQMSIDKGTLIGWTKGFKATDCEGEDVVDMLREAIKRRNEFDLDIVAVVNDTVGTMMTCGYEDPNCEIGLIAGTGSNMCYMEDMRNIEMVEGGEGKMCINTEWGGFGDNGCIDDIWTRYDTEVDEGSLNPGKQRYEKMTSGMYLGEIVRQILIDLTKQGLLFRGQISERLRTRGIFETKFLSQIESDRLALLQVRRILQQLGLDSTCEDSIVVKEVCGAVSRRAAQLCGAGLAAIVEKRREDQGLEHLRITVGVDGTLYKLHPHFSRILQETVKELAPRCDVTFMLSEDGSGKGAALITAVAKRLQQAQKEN

Vero = Vero cell cytotoxicity, cytotoxicity control for flavivirus capping enzyme inhibitors (AID 588742); format: functional; details: Chlorocebus sabaeus
Genome polyprotein = Genome polyprotein (dengue virus type 2, UniProt P29990); test: Dengue-2 NS5 methyltransferase inhibitors, primary screen, biochemical, confirmation dose response (AID 588689); format: functional
[4] = biological target: T4, Mitochondrial peptide methionine sulfoxide reductase (Bos taurus, UniProt P54149); test: Absorbance-based biochemical high throughput dose response assay for activators of Methionine sulfoxide reductase A (MsrA).; format: functional
T4 sequence (P54149 whole entry): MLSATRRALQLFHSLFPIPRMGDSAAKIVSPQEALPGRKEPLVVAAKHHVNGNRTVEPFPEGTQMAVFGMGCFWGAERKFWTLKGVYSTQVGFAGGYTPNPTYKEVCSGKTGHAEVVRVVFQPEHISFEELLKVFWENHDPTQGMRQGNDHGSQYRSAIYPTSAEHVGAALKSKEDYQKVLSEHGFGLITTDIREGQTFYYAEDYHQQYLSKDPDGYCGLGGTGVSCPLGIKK

[5] = Fluorescence-based cell-based high throughput dose response assay for inhibitors of the interaction of nucleotide-binding oligomerization domain containing 2 (NOD2) and the receptor-interacting serine-threonine kinase 2 (RIPK2).; format: functional; details: Homo sapiens
Paired box protein Pax-8 = Paired box protein Pax-8 (Homo sapiens, UniProt Q06710); test: inhibitors of PAX8-driven TPO luciferase reporter, dose response, RMG-I cells, cherry-pick (AID 687027); format: functional, cell-based;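 note: luciferase reporter driven by Pax8 target thyroperoxidase promoter measured by SteadyGlo luminescence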
Sequence of Paired box protein Pax-8 (Q06710 whole entry): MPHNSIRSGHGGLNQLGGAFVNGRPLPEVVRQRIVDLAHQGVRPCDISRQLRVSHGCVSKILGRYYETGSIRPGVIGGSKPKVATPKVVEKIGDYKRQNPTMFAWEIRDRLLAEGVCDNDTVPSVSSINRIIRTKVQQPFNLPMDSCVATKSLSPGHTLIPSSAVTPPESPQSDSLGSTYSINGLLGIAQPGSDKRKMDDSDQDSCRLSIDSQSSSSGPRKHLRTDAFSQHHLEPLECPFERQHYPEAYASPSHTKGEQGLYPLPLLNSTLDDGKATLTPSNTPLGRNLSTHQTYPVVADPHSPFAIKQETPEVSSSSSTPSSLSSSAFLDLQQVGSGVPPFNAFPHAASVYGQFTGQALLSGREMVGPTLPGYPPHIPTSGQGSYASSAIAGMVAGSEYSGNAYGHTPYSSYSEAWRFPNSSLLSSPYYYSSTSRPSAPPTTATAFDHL

[6] = biological target: T5, Tyrosyl-DNA phosphodiesterase 2 (Homo sapiens, UniProt O95551); test: human TDP2 enzyme inhibitors, dose response, biochemical, epi absorbance, IC50 (AID 743297)
T5 sequence (O95551 whole entry): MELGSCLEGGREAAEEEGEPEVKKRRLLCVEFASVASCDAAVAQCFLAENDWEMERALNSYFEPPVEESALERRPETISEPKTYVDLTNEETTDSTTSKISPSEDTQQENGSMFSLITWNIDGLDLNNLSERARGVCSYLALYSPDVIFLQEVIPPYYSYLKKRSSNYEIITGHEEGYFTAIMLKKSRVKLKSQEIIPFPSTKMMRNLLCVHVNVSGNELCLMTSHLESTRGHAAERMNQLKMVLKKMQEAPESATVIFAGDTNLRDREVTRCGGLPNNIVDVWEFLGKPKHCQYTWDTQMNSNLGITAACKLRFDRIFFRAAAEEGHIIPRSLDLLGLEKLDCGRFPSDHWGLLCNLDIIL

[7] = non-specific cell cytotoxicity, dose response, cytotoxicity control for PAX8 inhibitor project, plate reader, dry powder samples (AID 743021); format: functional, cell-based
[8] = THP-1 cell cytotoxicity, dose response, cytotoxicity control for Vif-APOBEC3G degradation inhibitor project, THP-1 cells (AID 1117359); format: functional; details: Human immunodeficiency virus 1, THP-1
[9] = NIH-3T3 fibroblast cytotoxicity, dose response, cytotoxicity control, cell-based, fluorescence, Alamar Blue, secondary assay (AID 2327); format: functional;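 note: NIH-3T3 mouse fibroblasts cultured with fluconazole at 8 µg/mL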
[10] = C. albicans growth with fluconazole, confirmation, fluorescence, retest (AID 2467); format: functional, cell-based
[11] = inhibitors of intracellular T. cruzi replication, confirmation, NIH3T3 host cells, beta-gal luminescence (AID 2044); format: functional, cell-based;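 note: intracellular parasites grown in NIH/3T3 mouse fibroblasts as host cells; luminescent beta-galactosidase reporter signal from transgenic T. cruzi replicating inside host cells; inhibitors lower the luminescence signal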
[12] = biological target: Serine/threonine-protein phosphatase (Candida dubliniensis (strain CD36 / CBS 7987 / NCPF 3949 / NRRLY-17841) (Yeast), UniProt B9W6M3); test: calcineurin pathway inhibitors in yeast reporter, dose response, S. cerevisiae, CDRE-lacZ, luminescence, secondary (AID 2388); format: functional, cell-based;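 note: yeast reporter cells carrying a calcineurin-responsive lacZ construct stimulated with calcium chloride; luminescent beta-galactosidase reporter signal in whole cells rather than isolated phosphatase activity; potency for inhibition where a drop in reporter signal means calcineurin blockade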
Sequence of Serine/threonine-protein phosphatase (B9W6M3 whole entry): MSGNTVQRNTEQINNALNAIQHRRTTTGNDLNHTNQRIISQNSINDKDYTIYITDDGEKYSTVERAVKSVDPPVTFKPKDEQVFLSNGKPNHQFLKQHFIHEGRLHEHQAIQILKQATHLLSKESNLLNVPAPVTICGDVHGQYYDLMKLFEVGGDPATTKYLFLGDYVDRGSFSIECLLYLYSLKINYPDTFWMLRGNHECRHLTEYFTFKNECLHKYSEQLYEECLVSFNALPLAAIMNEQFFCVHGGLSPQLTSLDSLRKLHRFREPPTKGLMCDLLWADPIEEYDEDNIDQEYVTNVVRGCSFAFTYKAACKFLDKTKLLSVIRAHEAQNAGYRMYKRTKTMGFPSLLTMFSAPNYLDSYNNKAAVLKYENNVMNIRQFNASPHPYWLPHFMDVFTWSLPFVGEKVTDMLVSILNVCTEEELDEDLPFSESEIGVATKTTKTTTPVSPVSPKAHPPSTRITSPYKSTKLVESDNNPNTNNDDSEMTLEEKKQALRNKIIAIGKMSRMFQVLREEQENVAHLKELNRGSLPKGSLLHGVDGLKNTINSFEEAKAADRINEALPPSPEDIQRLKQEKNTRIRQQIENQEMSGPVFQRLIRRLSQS

[13] = cytotoxicity toward NIH3T3 fibroblasts, dose response, counter-screen, cell-based, ATP luminescence, mouse fibroblasts (AID 2010); format: functional;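 note: cells exposed to compound for about 90 hours before reading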
[14] = cytotoxicity in HEK-293T cells, dose response, cytotoxicity control for TCR NF-kB inhibitor project, luminescence, T-cell screen hits (AID 489026); format: functional, cell-based;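 note: cells exposed to compound about 14 hours before the viability readout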
[15] = biological target: T6, Microphthalmia-associated transcription factor (Homo sapiens, UniProt O75030); test: TRPM1 promoter luciferase signal decrease, dose response, MITF inhibitor project, cell-based, SK-MEL-5, cherry-picked, set 3 (AID 493073); format: functional
T6 sequence (O75030 whole entry): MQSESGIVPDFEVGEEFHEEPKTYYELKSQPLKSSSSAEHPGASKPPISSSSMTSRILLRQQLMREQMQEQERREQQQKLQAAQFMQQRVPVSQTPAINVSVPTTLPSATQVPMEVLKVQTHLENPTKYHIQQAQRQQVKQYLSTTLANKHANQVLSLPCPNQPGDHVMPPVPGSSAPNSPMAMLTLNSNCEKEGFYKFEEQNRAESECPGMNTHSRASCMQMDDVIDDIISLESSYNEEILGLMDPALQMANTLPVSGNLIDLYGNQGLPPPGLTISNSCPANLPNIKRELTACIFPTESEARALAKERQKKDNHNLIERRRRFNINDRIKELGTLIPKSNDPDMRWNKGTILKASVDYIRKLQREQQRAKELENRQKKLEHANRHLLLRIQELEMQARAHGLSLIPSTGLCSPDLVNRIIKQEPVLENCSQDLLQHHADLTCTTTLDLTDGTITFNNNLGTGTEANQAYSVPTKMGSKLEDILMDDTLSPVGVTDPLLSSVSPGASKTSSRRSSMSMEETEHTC

INS1 = test: beta cell apoptosis inhibitors, cytokine rescue, dose response, luminescence, retest (AID 449756); format: functional, cell-based; details: Rattus norvegicus;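 note: cell death triggered by IL-1 beta plus TNF-alpha plus IFN-gamma mixture; protective hits raise ATP signal compared with cytokine alone wells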
[16] = biological target: ATP-dependent molecular chaperone HSP82 (Candida albicans (strain WO-1) (Yeast), UniProt C4YTQ8); test: loss of DOC-induced GRE-beta-galactosidase reporter signal, dose response, Hsp90 inhibitor project, S. cerevisiae, luminescence (AID 2400); format: functional, cell-based;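 note: beta-galactosidase luminescence from glucocorticoid response element reporter as proxy for Hsp90 function; inhibitor potency where signal loss means Hsp90 inhibition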
Sequence of ATP-dependent molecular chaperone HSP82 (C4YTQ8 whole entry): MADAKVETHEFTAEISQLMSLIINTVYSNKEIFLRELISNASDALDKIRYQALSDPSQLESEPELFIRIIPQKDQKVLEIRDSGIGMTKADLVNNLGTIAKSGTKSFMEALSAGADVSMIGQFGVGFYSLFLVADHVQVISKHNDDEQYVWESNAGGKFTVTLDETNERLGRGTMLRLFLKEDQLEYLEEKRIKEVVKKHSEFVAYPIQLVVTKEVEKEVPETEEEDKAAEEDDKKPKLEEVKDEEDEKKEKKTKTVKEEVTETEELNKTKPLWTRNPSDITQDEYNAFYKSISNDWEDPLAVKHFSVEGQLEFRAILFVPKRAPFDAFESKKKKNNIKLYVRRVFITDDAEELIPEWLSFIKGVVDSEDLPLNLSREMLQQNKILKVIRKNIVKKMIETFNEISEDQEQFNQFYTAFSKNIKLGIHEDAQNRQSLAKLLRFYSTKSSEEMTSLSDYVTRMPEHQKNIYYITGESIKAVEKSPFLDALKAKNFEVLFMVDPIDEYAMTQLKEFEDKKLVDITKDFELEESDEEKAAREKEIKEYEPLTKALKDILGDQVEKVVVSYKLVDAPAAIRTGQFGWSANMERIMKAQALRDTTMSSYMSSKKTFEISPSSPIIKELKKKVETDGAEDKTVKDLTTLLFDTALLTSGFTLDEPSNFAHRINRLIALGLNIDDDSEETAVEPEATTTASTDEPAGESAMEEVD

[17] = biological target: T7, COUP transcription factor 2 (Homo sapiens, UniProt P24468); test: Luminescence-based cell-based high throughput dose response assay to identify inhibitors of COUP-TFII (NR2F2).; format: functional;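 note: HEK293 cells transiently cotransfected with COUP-TFII expression vector and reporter; luciferase reporter luminescence driven by COUP-TFII from the pX2-168 reporter plasmid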
T7 sequence (P24468 whole entry): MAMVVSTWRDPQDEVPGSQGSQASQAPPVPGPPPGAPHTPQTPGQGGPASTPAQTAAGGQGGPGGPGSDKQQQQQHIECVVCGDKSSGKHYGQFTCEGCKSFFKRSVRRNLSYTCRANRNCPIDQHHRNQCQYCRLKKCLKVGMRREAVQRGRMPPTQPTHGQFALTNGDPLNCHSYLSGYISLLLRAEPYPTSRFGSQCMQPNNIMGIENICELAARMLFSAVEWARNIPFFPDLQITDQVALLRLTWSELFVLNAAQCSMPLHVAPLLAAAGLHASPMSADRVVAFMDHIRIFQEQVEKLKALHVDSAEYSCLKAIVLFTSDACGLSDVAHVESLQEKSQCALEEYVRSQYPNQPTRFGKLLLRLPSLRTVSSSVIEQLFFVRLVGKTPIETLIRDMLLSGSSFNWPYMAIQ

Beta-galactosidase [18] = biological target: T2, Beta-galactosidase; test: PubChem AID 485352; format: functional
[19] = biological target: T8, Type-1 angiotensin II receptor (Homo sapiens, UniProt P30556); test: AT1 receptor antagonists, dose response, selectivity assay for APJ receptor antagonist project, cell-based, uHTS hits (AID 463214); format: functional;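 note: antagonist potency against angiotensin II stimulated AT1 response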
T8 sequence (P30556 whole entry): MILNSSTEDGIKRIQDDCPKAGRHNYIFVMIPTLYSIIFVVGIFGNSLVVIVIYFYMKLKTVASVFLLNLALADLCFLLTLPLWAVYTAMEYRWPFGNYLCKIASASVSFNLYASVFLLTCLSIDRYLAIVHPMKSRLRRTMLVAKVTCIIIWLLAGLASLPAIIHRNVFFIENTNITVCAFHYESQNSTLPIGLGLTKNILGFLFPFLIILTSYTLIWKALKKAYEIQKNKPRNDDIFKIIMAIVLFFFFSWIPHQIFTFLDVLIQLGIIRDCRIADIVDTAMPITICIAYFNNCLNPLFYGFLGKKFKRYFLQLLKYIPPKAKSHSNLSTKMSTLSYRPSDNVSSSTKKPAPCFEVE

Sequence of Phospholipase D1 (Q13393 whole entry): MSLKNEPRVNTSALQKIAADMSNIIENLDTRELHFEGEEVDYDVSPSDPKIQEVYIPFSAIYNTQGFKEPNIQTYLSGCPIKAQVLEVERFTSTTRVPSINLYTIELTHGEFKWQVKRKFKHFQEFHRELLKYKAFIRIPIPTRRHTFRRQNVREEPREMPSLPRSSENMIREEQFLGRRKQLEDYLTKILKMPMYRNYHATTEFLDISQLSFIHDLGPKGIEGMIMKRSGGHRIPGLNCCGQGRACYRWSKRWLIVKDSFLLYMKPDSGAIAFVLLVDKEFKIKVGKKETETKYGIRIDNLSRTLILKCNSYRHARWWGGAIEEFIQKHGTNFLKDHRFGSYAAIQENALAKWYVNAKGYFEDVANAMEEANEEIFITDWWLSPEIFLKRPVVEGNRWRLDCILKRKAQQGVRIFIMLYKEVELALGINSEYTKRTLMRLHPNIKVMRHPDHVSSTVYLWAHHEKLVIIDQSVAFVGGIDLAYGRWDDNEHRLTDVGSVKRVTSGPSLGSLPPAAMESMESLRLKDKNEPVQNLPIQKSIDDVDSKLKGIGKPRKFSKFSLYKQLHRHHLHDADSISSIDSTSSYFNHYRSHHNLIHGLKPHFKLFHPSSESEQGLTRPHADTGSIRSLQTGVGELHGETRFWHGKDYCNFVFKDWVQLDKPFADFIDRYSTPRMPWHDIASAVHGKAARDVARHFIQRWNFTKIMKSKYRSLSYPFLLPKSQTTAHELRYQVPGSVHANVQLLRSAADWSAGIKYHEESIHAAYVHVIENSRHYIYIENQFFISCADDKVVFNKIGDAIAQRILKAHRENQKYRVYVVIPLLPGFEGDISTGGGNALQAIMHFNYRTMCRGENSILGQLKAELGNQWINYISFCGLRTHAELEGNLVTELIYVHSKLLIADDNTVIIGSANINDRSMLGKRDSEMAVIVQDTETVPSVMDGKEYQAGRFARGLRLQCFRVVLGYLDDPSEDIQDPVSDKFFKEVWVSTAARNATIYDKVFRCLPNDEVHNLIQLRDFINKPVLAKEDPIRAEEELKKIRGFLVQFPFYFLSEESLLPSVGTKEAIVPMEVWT

CC(C)[C@@H](CN1CCC2(CC1)C(=O)NCN2c1ccccc1)NC(=O)c1ccc2ccccc2c1
active: IC50 (Phospholipase D1) 0.14 µM | IC50 (Phospholipase D2) 1.5 µM

O=C(NC1=CC(=O)c2ccccc2C1=O)c1ccccc1
inactive: IC50 [1] 35.7 µM | IC50 [2] > 66.6 µM | IC50 (Beta-galactosidase [3]) > 66.6 µM | EC50 [4] 34.1 µM | IC50 [6] 11.7 µM
active: IC50 (Hexokinase HKDC1) 3.09 µM | CC50 (Vero) 15.2 µM | IC50 (Genome polyprotein) 18.5 µM | IC50 [5] 2.06 µM | AC50 (Paired box protein Pax-8) 4.43 µM | AC50 [7] 24.2 µM | CC50 [8] 2.65 µM

COc1ccc(-[n+]2cc(-c3ccc(C)cc3)n3c2SCC3)cc1
active: EC50 [10] 1.17 µM | EC50 [11] 0.318 µM | AC50 [15] 2.91 µM | AC50 (INS1) 1.12 µM | IC50 [17] 7.65 µM
inactive: EC50 [9] > 150 µM | EC50 [12] > 180 µM | IC50 [14] > 80 µM | EC50 [16] > 150 µM
> 60 µM (not active): EC50 [13]

CCC1CCCCN1CC(=O)c1ccc(OC(F)F)cc1 (stereo unspecified)
inactive: EC50 (Beta-galactosidase [18]) > 40 µM
> 40 µM (not active): IC50 [19]
